The numbers were not newly measured in US10292931B2, “Stable liquid pharmaceutical composition based on trazodone” (AZIENDE CHIMICHE RIUNITE ANGELINI FRANCESCO A.C.R.A.F. …, priority 2007, dated 2019), which cites them from elsewhere.

Structures are written as SMILES. Where a name gives a salt, the structure may show the parent alone. Read-outs that look alike come from different tables or passages of the source.

The conditions of series [1]: 1% (w/v) aqueous solution.
The conditions of series [2]: room temperature.

Consider `O=c1n(CCCN2CCN(c3cccc(Cl)c3)CC2)nc2ccccn12` [trazodone hydrochloride], for which, in series [1], the “pH of aqueous solution” value is “approx. 3.90”. In addition, the solubility in series [2] (95% ethanol) is on record as 1.6 g/100 ml; in series [2] (benzene), “practically insoluble”; in series [2] (chloroform) it was 3.6 g/100 ml; in series [2] (ethyl ether), “practically insoluble”; in series [2] (methanol) it was 2.5 g/100 ml; in series [2] (octanol) it was “less than 0.1 g/100 ml”. For the same compound, the results for the solubility entry in series [2] (olive oil) and in series [2] (water) were “less than 0.1 g/100 ml” and 1.8 g/100 ml, respectively.
